Columns and labels:
Bad = assay: Western blot, liver of bile acid fed rats: Bad; assay type: in vivo, rat; conditions: bile acid feeding
Protocol: Male 160-175 g Sprague-Dawley rats (Sprague-Dawley, Indianapolis, Ind.), were maintained on a 12 h light-dark cycle and fed standard laboratory chow ad libitum for 3 days. The animals were then transferred to metabolic cages and fed diets of standard laboratory chow supplemented with either no bile acid or 0.4% (wt/wt) DCA, 0.4% UDCA, or a combination of DCA+UDCA (Bio-Serv, Frenchtown, N.J.). On day 10, the animals were sacrificed by exsanguination under ether anesthesia between 9 a.m. and 11 a.m. The livers were removed, rinsed in normal saline, and flash-frozen in liquid nitrogen until western blot analyses of apoptosis-related proteins were performed.
Cytoplasmic proteins were isolated from rat liver tissue as described previously (Trembley et al., Cell Growth & Differ., 7, 903-916 (1996)). […] Cytoplasmic and mitochondrial protein concentrations were determined using the Bio-Rad protein assay (Bio-Rad Laboratories). […]
Video densitometry was accomplished using a Macintosh II (Apple Computer, Cupertino, Calif.) coupled to a Data Translation DT2255 video digitizer (Data Translation, Marlboro, Mass.) and a JVC GX-N8 video camera (JVC Corporation of America, Elmwood Park, N.J.) as described previously (Kren et al., J. Cell Biol., 123, 707-718 (1993)). Quantitation of the autoradiograms was performed using the NIH Image 1.4 densitometric analysis program.

primary rat hepatocytes = assay: Ethanol-induced apoptosis, Hoechst staining, primary rat hepatocytes; assay type: cell-based
Protocol: Incubation of cells with ethanol, TGF-β1, anti-Fas antibody or okadaic acid. Freshly isolated rat hepatocytes were cultured for 3 h as described above and then incubated with William's E medium supplemented with either 0.5% ethanol, 50 μM UDCA, ethanol plus UDCA, or no addition (control) for 2 h and 4 h. HuH-7 cells were incubated with Dulbecco's medium supplemented with either 1 nM TGF-β1 (R & D Systems, Minneapolis, Minn.), 100 μM UDCA, TGF-β1+UDCA, or no addition (control) for 24 h, 48 h, and 72 h. Hep G2 cells were incubated with Dulbecco's medium supplemented with either 0.5 μg/ml of anti-Fas antibody CH-11 (Upstate Biotechnology, Inc., Lake Placid, N.Y.), 100 μM UDCA, CH-11+UDCA, or no addition for 48 h. Both HuH-7 cells and human osteogenic sarcoma Saos-2 cells were cultured in Dulbecco's medium supplemented with either 50 nM okadaic acid (Boehringer Mannheim Biochemicals, Inc, Indianapolis, Ind.), 100 μM UDCA, okadaic acid+UDCA, or no addition for 48 h. In all the combination groups, cells were pretreated with UDCA alone for 60 min prior to addition of ethanol, TGF-β1, anti-Fas antibody or okadaic acid.
Morphological evaluation of apoptosis. Morphology was performed as described previously (Oberhammer et al., Proc. Natl. Acad. Sci. USA 89, 5408-5412 (1992)). Briefly, after fixation (with 4% formaldehyde in PBS, pH 7.4, for 10 min at room temperature), the cells were incubated with Hoechst dye 33258 (Sigma Chemical Co.) at 5 μg/ml in PBS for 5 min, washed with PBS and mounted with PBS:glycerol (3:1, v/v). Fluorescence was visualized with a Zeiss standard fluorescence microscope (Carl Zeiss, Inc., Thornwood, N.Y.). Photographs were taken with Kodak Ektar-1000 film (Eastman Kodak Co.). Stained nuclei were scored by blind analysis and categorized according to the condensation and staining characteristics of chromatin. Normal nuclei were identified as noncondensed chromatin dispersed over the entire nucleus. Apoptotic nuclei were identified by condensed chromatin, contiguous to the nuclear membrane, as well as nuclear fragmentation of condensed chromatin. Three fields per dish of approximately 500 nuclei were counted; mean values are expressed as the percent of apoptotic nuclei.

[1] = test system: hepatocytes, HuH-7, Hep G2 and Saos-2 cells; assay: FACS analysis of ΔΨm and ROS, summary over all cell types; assay type: cell-based; conditions: coadministration of UDCA with the inducers, range over cell types
Protocol: A ΔΨm and ROS measurement. ΔΨm and ROS production were measured by FACScan (Becton Dickinson) analysis. Freshly isolated rat hepatocytes were cultured for 3 h as described above and then incubated with William's E medium supplemented with either 100 μM DCA, 100 μM UDCA, equal molar amounts of both, or no bile acid (control), for 6 h. Rat hepatocytes were also cultured with either 1% ethanol, 100 μM UDCA, ethanol+UDCA, or no addition (control) for 4 h. HuH-7 cells, Hep G2 cells, and human osteogenic sarcoma Saos-2 cells were incubated with TGF-β1, anti-Fas antibody or okadaic acid, respectively, for 48 h under the same conditions as outlined above. For combination studies, cells were pretreated with UDCA or hyodeoxycholic acid for 60 min prior to addition of DCA, ethanol, TGF-β1, anti-Fas antibody or okadaic acid. Aliquots of 1.0×10^6 cells were incubated for 15 min at 37° C. with 50 nM 3,3′-dihexyloxacarbocyanine iodide [DiOC6(3)], 2 μM dihydroethidium (HE), or 5 μM 2′,7′-dichlorofluorescin diacetate (H2DCFDA; Molecular Probes, Inc. Eugene, Oreg.) and analyzed by cytofluorometry (Cathcart et al., Anal. Biochem., 134, 111-116 (1983); Zamzami et al., J. Exp. Med., 181, 1661-1672 (1 995); Carter et al., J. Leukocyte Biol., 55, 253-258 (1994)).

PARP = PARP cleavage in rat hepatocytes; assay type: cell-based; conditions: pretreatment with UDCA; DCA, TGF-β1 or okadaic acid
Source text: Determination of PARP cleavage. For the determination of PARP cleavage, total protein were separated on a 8% SDS-polyacrylamide electrophoresis gel. Blots were probed with primary polyclonal antibody to PARP (Santa Cruz Biotechnology).

Bax = Bax translocation from cytosol to mitochondria in rat hepatocytes; assay type: cell-based; conditions: preincubation with UDCA
Protocol: Isolation of cytosol and mitochondrial fractions and determination of cytochrome c and Bax content. Freshly isolated rat hepatocytes were cultured for 3 hours as described above and then incubated with William's medium supplemented with either 50 μM of DCA for 4 h, 1 nM TGF-β1 for 24 h and […] okadaic acid for 16 h, in the presence or absence of 100 μM UDCA, or no addition (control). Time-course experiments were also performed. Cells (1.0×10^7/ml) were harvested by centrifugation at 600×g for 5 min at 4° C. The cell pellets were washed once in ice-cold PBS and resuspended with 3 volumes of isolation buffer containing 20 mM Hepes-KOH, pH 7.5, 10 mM KCl, 1.5 mM MgCl2, 1 mM sodium EDTA, 1 mM sodium EGTA, 1 mM dithiothreitol (DTT), suplemmented with the COMPLETE protease inhibitor cocktail (Boehringer Mannheim Biochemicals, Inc., Indianapolis, Ind.) in 250 mM sucrose. After chiling on ice for 15 min, the cells were disrupted by 40 stokes of a glass homogeneizer and the homogenates were centrifuged twice at 2,500×g for 10 min at 4° C. to remove unbroken cells and nuclei. The mitochondria were pelleted by centrifugation at 12,000×g for 30 min at 4° C., resuspended in isolation buffer containing 250 mM sucrose and frozen at −80° C. […]

SMILES | cytoplasmic Bad expression, increase (Bad) | cell viability (primary rat hepatocytes; 0.5% ethanol + 50 μM UDCA) [%] | Inhibition % Apoptosis (primary rat hepatocytes; inducer ETOH, hepatocytes, inhibition by UDCA) [%] | decrease in superoxide anion production [1] | inhibition of increase in other ROS [1] | inhibition of ΔΨm disruption [1] | prevention of PARP cleavage (PARP) [%] | prevention of Bax translocation (Bax) [%]
C[C@H](CCC(=O)O)[C@H]1CC[C@H]2[C@@H]3CC[C@@H]4C[C@H](O)CC[C@]4(C)[C@H]3C[C@H](O)[C@]12C [DCA, deoxycholic acid] | approximately 2 fold |  |  |  |  |  |  | 
C[C@H](CCC(=O)O)[C@H]1CC[C@H]2[C@@H]3[C@@H](O)C[C@@H]4C[C@H](O)CC[C@]4(C)[C@H]3CC[C@]12C [UDCA, ursodeoxycholic acid] |  | 79.5±7.9 | 75.9 ± 13.8 | 55-93% | 39-65% | 21-63% | 60 | 45
